Assay results taken from US12584173B2, “Methods for disease treatment and drug discovery” (The Scripps Research Institute, priority 2018, dated 2026).

Tests used:
CFTR = CFTR (Homo sapiens, UniProt P13569, DEL508-508); conditions: cited from earlier work
NPC1 [1] = conditions: cited from earlier work
NPC1 [2] = test: NPC1 variant trafficking index (TrIdx, endo H resistance) in NPC1 null cell lines; format: cell-based, human
From the text: (§1) NPC1 is composed of multiple domains that harbor the different variants contributing to disease. Given the heterozygous allelic composition of most NPC1 primary fibroblasts that compromise interpretation of the impact of a specific allele on disease progression, we silenced NPC1 expression with shRNA to generate stable null cell lines. These null cell lines were transiently transfected with a sparse collection of plasmids that each harbor one of 48 distinct NPC1 disease-associated variants in NPC1 distributed among the various NPC1 domains. […] We binned this sparse collection of variants into 4 functional classes (Cass I-IV). Class I variants lack polypeptide expression in response to non-sense and/or splicing (truncation) mutations (null), Class II missense variants are largely ER retained (defined as <0.2 TrIdx), Class III missense variants show an intermediate level of trafficking (defined as 0.2 to 0.5 TrIdx) and Class IV missense variants have a level of trafficking >0.5 TrIdx indicating significant export from the ER. […] The impact of cholesterol (ChoI) storage in the LE/LY for each of these variants was measured using automated high content screening image analysis based on filipin staining.
(§2) Each of the 48 NPC1 variants was examined for the impact of SAHA on both TrIdx and ChoI in the LE/LY. […] The effects of HDACi were NPC1-dependent as restoration of ChoI homeostasis by SAHA was not observed in fibroblasts lacking NPC1 and in null cell-lines lacking NPC1.

NPC1 [3] = test: cholesterol storage in LE/LY by filipin staining, high content image analysis; format: cell-based, human
From the text: as §1, §2

Sequence of CFTR (P13569 with tags, fused parts or gaps DEL508-508): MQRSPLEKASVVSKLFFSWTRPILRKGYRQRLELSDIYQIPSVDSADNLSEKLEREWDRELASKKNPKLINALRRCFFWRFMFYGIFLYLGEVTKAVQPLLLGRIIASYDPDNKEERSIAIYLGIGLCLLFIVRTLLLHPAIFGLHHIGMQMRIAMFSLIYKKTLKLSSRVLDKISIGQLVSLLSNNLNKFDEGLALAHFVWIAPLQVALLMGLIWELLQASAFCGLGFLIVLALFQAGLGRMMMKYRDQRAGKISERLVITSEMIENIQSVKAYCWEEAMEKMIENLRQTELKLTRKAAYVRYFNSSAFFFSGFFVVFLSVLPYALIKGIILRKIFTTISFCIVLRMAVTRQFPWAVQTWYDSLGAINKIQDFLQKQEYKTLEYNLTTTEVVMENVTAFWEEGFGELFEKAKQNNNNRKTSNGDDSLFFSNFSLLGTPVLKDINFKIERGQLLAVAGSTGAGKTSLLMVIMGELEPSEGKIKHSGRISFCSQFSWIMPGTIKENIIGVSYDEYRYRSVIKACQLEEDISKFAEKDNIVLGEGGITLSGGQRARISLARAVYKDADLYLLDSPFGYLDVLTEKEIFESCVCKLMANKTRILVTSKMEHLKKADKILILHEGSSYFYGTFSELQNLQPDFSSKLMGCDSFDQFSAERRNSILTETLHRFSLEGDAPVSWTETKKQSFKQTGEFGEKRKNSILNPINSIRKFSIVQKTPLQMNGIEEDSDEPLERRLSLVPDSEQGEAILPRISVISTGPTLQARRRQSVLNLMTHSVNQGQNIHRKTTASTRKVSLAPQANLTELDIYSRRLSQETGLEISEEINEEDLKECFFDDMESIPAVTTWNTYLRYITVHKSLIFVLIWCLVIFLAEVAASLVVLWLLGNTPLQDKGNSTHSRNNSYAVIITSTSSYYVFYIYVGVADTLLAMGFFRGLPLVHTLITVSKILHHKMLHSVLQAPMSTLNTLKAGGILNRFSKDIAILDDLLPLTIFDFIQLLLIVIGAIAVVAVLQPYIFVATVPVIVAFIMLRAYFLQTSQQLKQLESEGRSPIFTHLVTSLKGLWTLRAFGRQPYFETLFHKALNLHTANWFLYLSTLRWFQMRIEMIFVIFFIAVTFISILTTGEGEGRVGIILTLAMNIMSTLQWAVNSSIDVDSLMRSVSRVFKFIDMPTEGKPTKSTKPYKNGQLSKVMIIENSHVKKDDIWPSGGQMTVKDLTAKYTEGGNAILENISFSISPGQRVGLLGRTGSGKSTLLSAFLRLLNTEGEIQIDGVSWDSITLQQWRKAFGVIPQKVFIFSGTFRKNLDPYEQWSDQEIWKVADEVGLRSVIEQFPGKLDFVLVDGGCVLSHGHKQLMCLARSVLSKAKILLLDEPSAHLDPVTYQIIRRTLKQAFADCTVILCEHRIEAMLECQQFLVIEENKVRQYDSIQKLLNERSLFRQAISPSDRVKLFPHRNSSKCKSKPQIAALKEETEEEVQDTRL

Compound: CC(C)(C)c1cc(C(C)(C)C)c(NC(=O)c2c[nH]c3ccccc3c2=O)cc1O [Ivacaftor]
- effect on export or function of F508del (CFTR): no effect

Compound: O=C(CCCCCCC(=O)Nc1ccccc1)NO [SAHA, Vorinostat]
- correction of the I1061T phenotype (protein stabilized for export to LE/LY, improved cholesterol homeostasis) (NPC1 [1]): correct the I1061T phenotype
- TrIdx (NPC1 [2]; NPC1 H510P): inability of SAHA to improve
- TrIdx (NPC1 [2]; NPC1 P532L): improved
- TrIdx (NPC1 [2]; NPC1 R518Q): large improvement
- TrIdx class after treatment (NPC1 [2]; majority of NPC1 variants with a TrIdx<0.2): at least a Class III TrIdx
- trafficking (NPC1 [2]; variants involved in the predicted path of cholesterol flow, TM region): not changed
- ChoI (NPC1 [3]; NPC1 H510P): lack of significant correction
- ChoI (NPC1 [3]; NPC1 P532L): improved
- cholesterol homeostasis (NPC1 [3]; NPC1 R518Q): does not significantly improve
- response to treatment (NPC1 [3]; NPC1 V950M, S954L, P1007A and T1036M (CLD5, late age of neurological onset cluster)): highly responsive
- restoration of ChoI homeostasis (NPC1 [3]; fibroblasts lacking NPC1 and null cell-lines lacking NPC1): not observed
- cholesterol homeostasis of NPC1 variants (NPC1 [3]; in all domains): significantly restored
- cholesterol storage state (NPC1 [3]; variants along the predicted cholesterol flow path (R1077Q, Y1088C, W1145R, Y634C, P691S, L1191F)): improved to level of WT or even better than WT
